Experimental data published in patent US12258327B2, “5-membered heteroaryl-containing aminopyridine compounds as EGFR inhibitors” (YUHAN CORPORATION, priority 2021, dated 2025).
Like-named read-outs stand apart in the source and are kept apart here.

What was measured:
EGFR L858R/T790M/C797S = EGFR L858R/T790M/C797S (Homo sapiens, UniProt P00533, C797S/L858R/T790M); test: Biochemical EGFR kinase assay (Lance Ultra TR-FRET), triple mutant L858R/T790M/C797S
Outline: (§1)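 In this biochemical assay, phosphorylation after a one-hour room-temperature reaction was detected with europium-labelled anti-phosphopeptide antibody at 2 nM final concentration.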

EGFR wildtype (WT) = EGFR wildtype (WT) (Homo sapiens, UniProt P00533); test: Biochemical EGFR kinase assay (Lance Ultra TR-FRET), wildtype
EGFR wildtype (WT), sequence (P00533 25-1210): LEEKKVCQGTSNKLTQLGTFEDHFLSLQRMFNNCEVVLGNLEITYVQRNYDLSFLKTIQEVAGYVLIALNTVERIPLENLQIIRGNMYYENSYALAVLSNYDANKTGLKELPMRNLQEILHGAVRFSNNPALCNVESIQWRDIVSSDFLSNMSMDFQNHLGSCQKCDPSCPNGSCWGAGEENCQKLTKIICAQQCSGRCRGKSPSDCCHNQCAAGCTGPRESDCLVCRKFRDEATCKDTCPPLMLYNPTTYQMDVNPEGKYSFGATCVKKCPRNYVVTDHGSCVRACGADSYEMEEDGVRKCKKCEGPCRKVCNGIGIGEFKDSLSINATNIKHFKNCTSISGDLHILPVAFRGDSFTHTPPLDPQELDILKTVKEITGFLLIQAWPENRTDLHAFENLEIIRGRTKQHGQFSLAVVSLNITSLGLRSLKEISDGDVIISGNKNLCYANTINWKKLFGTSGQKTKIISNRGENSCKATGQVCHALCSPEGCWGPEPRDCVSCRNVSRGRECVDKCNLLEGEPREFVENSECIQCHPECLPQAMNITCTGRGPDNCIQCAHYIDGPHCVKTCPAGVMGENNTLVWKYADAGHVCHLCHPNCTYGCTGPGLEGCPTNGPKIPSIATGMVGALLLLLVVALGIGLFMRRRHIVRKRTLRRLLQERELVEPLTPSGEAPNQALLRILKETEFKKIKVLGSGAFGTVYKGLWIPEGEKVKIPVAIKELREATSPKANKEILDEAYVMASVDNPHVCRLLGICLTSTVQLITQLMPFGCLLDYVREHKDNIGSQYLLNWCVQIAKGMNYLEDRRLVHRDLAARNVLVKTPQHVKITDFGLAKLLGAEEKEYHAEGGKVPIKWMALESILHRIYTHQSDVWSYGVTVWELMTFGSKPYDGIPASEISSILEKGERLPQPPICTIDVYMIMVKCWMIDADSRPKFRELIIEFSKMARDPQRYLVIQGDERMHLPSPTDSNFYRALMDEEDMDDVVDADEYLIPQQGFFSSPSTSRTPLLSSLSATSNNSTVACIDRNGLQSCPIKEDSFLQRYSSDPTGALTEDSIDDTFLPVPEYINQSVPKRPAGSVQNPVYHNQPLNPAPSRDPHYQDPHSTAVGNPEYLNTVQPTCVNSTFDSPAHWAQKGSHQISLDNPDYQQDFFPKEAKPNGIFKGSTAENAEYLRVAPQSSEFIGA
Outline: as §1

EGFR L858R/C797S = EGFR L858R/C797S (Homo sapiens, UniProt P00533, C797S/L858R); test: Biochemical EGFR kinase assay (Lance Ultra TR-FRET), double mutant L858R/C797S
EGFR L858R/C797S, sequence (P00533 25-1210 C797S/L858R): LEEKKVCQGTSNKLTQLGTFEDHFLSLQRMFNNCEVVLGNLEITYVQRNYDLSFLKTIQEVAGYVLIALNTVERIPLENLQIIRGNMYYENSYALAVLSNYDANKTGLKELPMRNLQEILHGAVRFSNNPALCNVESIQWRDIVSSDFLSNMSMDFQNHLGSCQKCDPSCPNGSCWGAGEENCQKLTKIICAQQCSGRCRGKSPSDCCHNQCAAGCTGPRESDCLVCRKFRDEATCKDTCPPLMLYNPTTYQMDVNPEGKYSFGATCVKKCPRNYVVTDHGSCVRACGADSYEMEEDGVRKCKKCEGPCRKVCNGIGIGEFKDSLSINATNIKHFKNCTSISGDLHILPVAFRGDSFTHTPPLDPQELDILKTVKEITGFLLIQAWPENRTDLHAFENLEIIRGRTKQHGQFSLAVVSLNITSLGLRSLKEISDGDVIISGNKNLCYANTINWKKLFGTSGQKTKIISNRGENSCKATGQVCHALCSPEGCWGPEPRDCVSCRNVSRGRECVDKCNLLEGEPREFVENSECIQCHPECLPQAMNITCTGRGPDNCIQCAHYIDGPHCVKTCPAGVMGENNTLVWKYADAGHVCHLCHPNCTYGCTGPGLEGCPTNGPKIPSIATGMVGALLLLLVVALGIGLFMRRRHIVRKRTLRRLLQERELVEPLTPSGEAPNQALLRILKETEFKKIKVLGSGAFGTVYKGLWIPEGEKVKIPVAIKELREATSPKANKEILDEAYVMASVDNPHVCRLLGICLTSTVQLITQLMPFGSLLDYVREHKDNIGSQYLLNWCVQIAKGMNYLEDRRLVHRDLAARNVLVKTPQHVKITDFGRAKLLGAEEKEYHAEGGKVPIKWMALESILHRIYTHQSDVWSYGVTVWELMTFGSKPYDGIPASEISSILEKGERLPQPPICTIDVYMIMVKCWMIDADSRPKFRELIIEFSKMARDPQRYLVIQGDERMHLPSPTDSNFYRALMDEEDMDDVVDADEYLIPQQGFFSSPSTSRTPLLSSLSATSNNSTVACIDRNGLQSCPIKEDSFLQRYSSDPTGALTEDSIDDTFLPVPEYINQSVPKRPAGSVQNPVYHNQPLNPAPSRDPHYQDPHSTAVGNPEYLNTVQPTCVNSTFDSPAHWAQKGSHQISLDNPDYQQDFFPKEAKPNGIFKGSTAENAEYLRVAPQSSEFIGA
Outline: as §1

EGFR del19/T790M/C797S = EGFR del19/T790M/C797S (Homo sapiens, UniProt P00533, C797S/DEL746-750/T790M); test: Biochemical EGFR kinase assay (Lance Ultra TR-FRET), triple mutant del19/T790M/C797S
EGFR del19/T790M/C797S, sequence (P00533 with tags, fused parts or gaps DEL746-750/T790M/C797S): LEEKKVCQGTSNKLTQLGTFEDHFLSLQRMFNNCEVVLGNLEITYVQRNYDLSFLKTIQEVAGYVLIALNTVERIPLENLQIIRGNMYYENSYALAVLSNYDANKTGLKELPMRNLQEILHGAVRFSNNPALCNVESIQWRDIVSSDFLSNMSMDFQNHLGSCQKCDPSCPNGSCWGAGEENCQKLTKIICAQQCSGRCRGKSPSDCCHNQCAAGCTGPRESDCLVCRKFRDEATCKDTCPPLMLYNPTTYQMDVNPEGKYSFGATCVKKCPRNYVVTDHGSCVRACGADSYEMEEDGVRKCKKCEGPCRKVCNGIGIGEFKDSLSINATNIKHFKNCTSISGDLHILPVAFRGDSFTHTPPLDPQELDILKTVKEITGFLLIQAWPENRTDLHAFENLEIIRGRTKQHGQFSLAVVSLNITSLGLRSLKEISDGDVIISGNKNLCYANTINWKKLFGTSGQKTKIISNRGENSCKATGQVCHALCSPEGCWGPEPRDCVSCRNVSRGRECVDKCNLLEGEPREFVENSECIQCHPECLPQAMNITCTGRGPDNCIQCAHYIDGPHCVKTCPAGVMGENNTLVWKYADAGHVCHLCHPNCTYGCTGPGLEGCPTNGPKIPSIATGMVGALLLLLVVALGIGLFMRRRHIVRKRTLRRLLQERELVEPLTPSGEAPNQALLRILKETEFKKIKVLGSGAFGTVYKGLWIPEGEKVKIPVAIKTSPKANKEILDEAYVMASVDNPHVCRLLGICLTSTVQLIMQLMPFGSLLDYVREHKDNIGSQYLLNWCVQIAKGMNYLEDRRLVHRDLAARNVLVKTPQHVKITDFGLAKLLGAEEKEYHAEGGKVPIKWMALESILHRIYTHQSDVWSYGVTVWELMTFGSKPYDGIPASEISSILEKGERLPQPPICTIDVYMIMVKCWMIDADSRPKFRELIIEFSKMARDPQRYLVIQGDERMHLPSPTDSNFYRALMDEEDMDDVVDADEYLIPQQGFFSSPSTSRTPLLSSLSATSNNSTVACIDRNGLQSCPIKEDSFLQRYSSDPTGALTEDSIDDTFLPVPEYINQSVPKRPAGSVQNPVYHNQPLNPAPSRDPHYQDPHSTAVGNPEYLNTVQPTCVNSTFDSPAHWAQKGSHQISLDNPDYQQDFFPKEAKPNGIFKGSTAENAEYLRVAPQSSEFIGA
Outline: as §1

EGFR del19/C797S = EGFR del19/C797S (Homo sapiens, UniProt P00533, C797S/DEL746-750); test: Biochemical EGFR kinase assay (Lance Ultra TR-FRET), double mutant del19/C797S
EGFR del19/C797S, sequence (P00533 with tags, fused parts or gaps DEL746-750/C797S): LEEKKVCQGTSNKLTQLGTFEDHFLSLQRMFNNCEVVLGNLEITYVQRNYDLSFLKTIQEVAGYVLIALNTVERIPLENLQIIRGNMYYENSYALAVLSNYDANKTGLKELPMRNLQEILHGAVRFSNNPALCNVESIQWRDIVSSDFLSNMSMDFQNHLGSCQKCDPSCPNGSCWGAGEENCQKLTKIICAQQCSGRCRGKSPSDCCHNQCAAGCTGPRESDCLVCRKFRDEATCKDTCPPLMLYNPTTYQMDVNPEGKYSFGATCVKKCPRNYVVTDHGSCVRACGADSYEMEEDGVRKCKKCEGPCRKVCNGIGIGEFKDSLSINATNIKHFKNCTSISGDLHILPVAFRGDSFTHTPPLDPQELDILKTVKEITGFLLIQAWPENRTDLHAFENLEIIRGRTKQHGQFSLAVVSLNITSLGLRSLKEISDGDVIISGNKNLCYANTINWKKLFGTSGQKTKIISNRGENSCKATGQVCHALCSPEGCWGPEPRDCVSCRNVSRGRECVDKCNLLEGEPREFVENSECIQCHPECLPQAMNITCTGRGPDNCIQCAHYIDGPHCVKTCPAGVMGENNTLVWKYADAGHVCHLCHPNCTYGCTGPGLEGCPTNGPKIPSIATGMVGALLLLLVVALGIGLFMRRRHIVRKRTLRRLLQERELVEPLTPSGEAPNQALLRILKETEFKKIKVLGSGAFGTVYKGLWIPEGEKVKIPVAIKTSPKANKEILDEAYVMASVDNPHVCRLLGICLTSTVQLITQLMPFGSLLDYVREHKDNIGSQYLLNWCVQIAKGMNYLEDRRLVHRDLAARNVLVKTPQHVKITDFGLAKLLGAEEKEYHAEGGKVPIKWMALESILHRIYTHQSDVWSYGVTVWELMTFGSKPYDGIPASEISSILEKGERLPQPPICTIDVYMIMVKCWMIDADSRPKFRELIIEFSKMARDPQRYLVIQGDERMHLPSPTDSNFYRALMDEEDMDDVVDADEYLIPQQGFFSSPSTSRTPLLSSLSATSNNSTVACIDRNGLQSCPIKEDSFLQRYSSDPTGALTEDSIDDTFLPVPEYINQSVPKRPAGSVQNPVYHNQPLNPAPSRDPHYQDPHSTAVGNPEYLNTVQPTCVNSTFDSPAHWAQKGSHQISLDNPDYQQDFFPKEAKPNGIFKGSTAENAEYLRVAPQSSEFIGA
Outline: as §1

[1] = Km ATP, read-out: IC50 L858R/T790M/C797S (nM) Km ATP
[2] = Km ATP, read-out: IC50 WT (nM) Km ATP
[3] = Km ATP, read-out: IC50 L858R/C797S (nM) Km ATP
[4] = Km ATP, read-out: IC50 del19/T790M/C797S (nM) Km ATP
[5] = Km ATP, read-out: IC50 del19/C797S (nM) Km ATP
[6] = IC50 L858R/T790M/C797S (nM) 100 μM ATP, 100 μM ATP
[7] = IC50 WT (nM) 100 μM ATP, 100 μM ATP
[8] = IC50 L858R/C797S (nM) 100 μM ATP, 100 μM ATP
[9] = IC50 del19/T790M/C797S (nM) 100 μM ATP, 100 μM ATP
[10] = IC50 del19/C797S (nM) 100 μM ATP, 100 μM ATP

| Compound | IC50 (EGFR L858R/T790M/C797S; [1]) [nM] | IC50 (EGFR wildtype (WT); [2]) [nM] | IC50 (EGFR L858R/C797S; [3]) [nM] | IC50 (EGFR del19/T790M/C797S; [4]) [nM] | IC50 (EGFR del19/C797S; [5]) [nM] | IC50 (EGFR L858R/T790M/C797S; [6]) [nM] | IC50 (EGFR wildtype (WT); [7]) [nM] | IC50 (EGFR L858R/C797S; [8]) [nM] | IC50 (EGFR del19/T790M/C797S; [9]) [nM] | IC50 (EGFR del19/C797S; [10]) [nM] | other results |
| --- | --- | --- | --- | --- | --- | --- | --- | --- | --- | --- | --- |
| COc1ncc(-c2nccc(Nc3cc(N[C@H]4CC[C@@](C)(O)CC4)c(-c4ccn(C(F)F)n4)cn3)n2)cc1F [Example 178, (1s,4s)-4-((5-(1-(Difluoromethyl)-1H-pyrazol-3-yl)-2-((2-(5-fluoro-6-methoxypyridin-3-yl)pyrimidin-4-yl)amino)pyridin-4-yl)amino)-1-methylcyclohexan-1-ol] | 16.8 | 2110 | 3 | 46.2 | 102 |  |  |  |  |  |  |
| CC(C)(O)c1nc(-c2cnc(Nc3ccnc(-c4cnn(S(=O)(=O)C5CC5)c4)n3)cc2N[C@H]2CCC[C@H](O)C2)cs1 [Example 91, (1S,3S)-3-((2-((2-(1-(Cyclopropylsulfonyl)-1H-pyrazol-4-yl)pyrimidin-4-yl)amino)-5-(2-(2-hydroxypropan-2-yl)thiazol-4-yl)pyridin-4-yl)amino) cyclohexan-1-ol] |  |  |  |  |  | 2.3 | > 10000 | 8.7 | 1 | 0.8 |  |
| C[C@]1(O)CC[C@@H](Nc2cc(Nc3ccnc(-c4cnn(S(=O)(=O)C5CC5)c4)n3)nnc2-c2ccn(C(F)F)n2)CC1 [Example 372, (1s,4s)-4-((6-((2-(1-(Cyclopropylsulfonyl)-1H-pyrazol-4-yl)pyrimidin-4-yl)amino)-3-(1-(difluoromethyl)-1H-pyrazol-3-yl)pyridazin-4-yl)amino)-1-methylcyclohexan-1-ol] |  |  |  |  |  |  |  |  |  |  | IC50 (EGFR L858R/T790M/C797S; Km ATP, read-out: IC50 L858R/T790M/C797S, Km ATP): 0.2 nM; IC50 (EGFR wildtype (WT); Km ATP, read-out: IC50 WT, Km ATP): 108 nM; IC50 (EGFR L858R/C797S; Km ATP, read-out: IC50 L858R/C797S, Km ATP): 3.7 nM; IC50 (EGFR del19/T790M/C797S; Km ATP, read-out: IC50 del19/T790M/C797S, Km ATP): 0.6 nM; IC50 (EGFR del19/C797S; Km ATP, read-out: IC50 del19/C797S, Km ATP): 6.9 nM |
| O=S(=O)(C1CC1)n1cc(-c2nccc(Nc3cc(NC[C@H]4CC[C@H](CO)CC4)c(-c4ccn(C(F)F)n4)cn3)n2)cn1 [Example 22, ((1r,4r)-4-(((2-((2-(1-(Cyclopropylsulfonyl)-1H-pyrazol-4-yl)pyrimidin-4-yl)amino)-5-(1-(difluoromethyl)-1H-pyrazol-3-yl)pyridin-4-yl)amino)methyl)cyclohexyl)methanol] | 0.4 | 22.4 | 4.4 | 0.9 |  | 1.2 | > 10000 | 21.5 | 1.1 | 2.1 |  |
| CN(C)CC[C@H]1CC[C@@H](Nc2cc(Nc3nc(-c4cnn(S(=O)(=O)C5CC5)c4)ncc3F)ncc2-c2ccn(C(F)F)n2)CC1 [Example 325, N^2-(2-(1-(Cyclopropylsulfonyl)-1H-pyrazol-4-yl)-5-fluoropyrimidin-4-yl)-5-(1-(difluoromethyl)-1H-pyrazol-3-yl)-N^4-((1s,4s)-4-(2-(dimethylamino)ethyl)cyclohexyl)pyridine-2,4-diamine] | 0.1 | 1.2 | 0.3 | 0.2 | 0.6 |  |  |  |  |  |  |
| O=S(=O)(C1CC1)n1cc(-c2nccc(Nc3cc(NC4CCCC(NCC(F)F)C4)c(-c4ccn(C(F)F)n4)cn3)n2)cn1 (stereo not shown) [Example 191, N^2-(2-(1-(Cyclopropylsulfonyl)-1H-pyrazol-4-yl)pyrimidin-4-yl)-N^4-(3-((2,2-difluoroethyl)amino)cyclohexyl)-5-(1-(difluoromethyl)-1H-pyrazol-3-yl)pyridine-2,4-diamine] |  |  |  |  |  | 2.4 | > 10000 | 1400 | 1.7 | 35.5 |  |
| Cc1nn(CC(F)(F)F)cc1-c1nccc(Nc2cc(N[C@H]3CC[C@@H](CCO)CC3)c(-c3ccn(C(F)F)n3)cn2)n1 [Example 326, 2-((1s,4s)-4-((5-(1-(Difluoromethyl)-1H-pyrazol-3-yl)-2-((2-(3-methyl-1-(2,2,2-trifluoroethyl)-1H-pyrazol-4-yl)pyrimidin-4-yl)amino)pyridin-4-yl)amino)cyclohexyl)ethan-1-ol] | 0.7 | 18.8 | 7.9 | 1.4 | 13.3 |  |  |  |  |  |  |
| O=S(=O)(C1CC1)n1cc(-c2nccc(Nc3cc(NC4CC5CC(O)C4C5)c(-c4ccn(C(F)F)n4)cn3)n2)cn1 (stereo not shown) [Example 39, 6-((2-((2-(1-(Cyclopropylsulfonyl)-1H-pyrazol-4-yl)pyrimidin-4-yl)amino)-5-(1-(difluoromethyl)-1H-pyrazol-3-yl)pyridin-4-yl)amino)bicycle[2.2.1]heptan-2-ol] | 1.2 | 143 | 27.8 | 1.6 | 7.2 | 7.9 | > 10000 | 262 | 3.6 | 17.6 |  |
| O=S(=O)(C1CC1)n1cc(-c2nccc(Nc3cc(NC[C@H]4CC[C@H](NCC(F)F)CC4)c(-c4ccn(C(F)F)n4)cn3)n2)cn1 [Example 130, N^2-(2-(1-(Cyclopropylsulfonyl)-1H-pyrazol-4-yl)pyrimidin-4-yl)-N^4-(((1r,4r)-4-((2,2-difluoroethyl)amino)cyclohexyl)methyl)-5-(1-(difluoromethyl)-1H-pyrazol-3-yl)pyridine-2,4-diamine] |  |  |  |  |  |  |  |  |  |  | IC50 (EGFR L858R/T790M/C797S; read-out: IC50 L858R/T790M/C797S (nM) 100 μM ATP, 100 μM ATP): 2 nM; IC50 (EGFR wildtype (WT); read-out: IC50 WT (nM) 100 μM ATP, 100 μM ATP): > 10000 nM; IC50 (EGFR L858R/C797S; read-out: IC50 L858R/C797S (nM) 100 μM ATP, 100 μM ATP): 96.5 nM; IC50 (EGFR del19/T790M/C797S; read-out: IC50 del19/T790M/C797S (nM) 100 μM ATP, 100 μM ATP): 2.1 nM; IC50 (EGFR del19/C797S; read-out: IC50 del19/C797S (nM) 100 μM ATP, 100 μM ATP): 6.3 nM |
| CC1(CNc2cc(Nc3ccnc(-c4cnn(S(=O)(=O)C5CC5)c4)n3)ncc2-c2ccn(C(F)F)n2)CCC(O)CC1 (stereo not shown) [Example 128, 4-(((2-((2-(1-(Cyclopropylsulfonyl)-1H-pyrazol-4-yl)pyrimidin-4-yl)amino)-5-(1-(difluoromethyl)-1H-pyrazol-3-yl)pyridin-4-yl)amino)methyl)-4-methylcyclohexan-1-ol] |  |  |  |  |  | 6.4 | > 10000 | 1120 | 3.1 | 40.8 |  |
| O=S(=O)(C1CC1)n1cc(-c2nccc(Nc3cc(NC4CCCC(NCCF)C4)c(-c4ccn(C(F)F)n4)cn3)n2)cn1 (stereo not shown) [Example 194, N^2-(2-(1-(Cyclopropylsulfonyl)-1H-pyrazol-4-yl)pyrimidin-4-yl)-5-(1-(difluoromethyl)-1H-pyrazol-3-yl)-N^4-(3-((2-fluoroethyl)amino)cyclohexyl)pyridine-2,4-diamine] | 0.1 | 19.9 | 5.8 | 0.3 | 4.4 | 0.6 | > 10000 | 32.1 | 0.2 | 7.5 |  |
| CN(C)CC[C@H]1CC[C@@H](Nc2cc(Nc3ccnc(-c4cnn(S(=O)(=O)C5CC5)c4)n3)ncc2-c2ccn(CC(F)F)n2)CC1 [Example 251, N^2-(2-(1-(Cyclopropylsulfonyl)-1H-pyrazol-4-yl)pyrimidin-4-yl)-5-(1-(2,2-difluoroethyl)-1H-pyrazol-3-yl)-N^4-((1s,4s)-4-(2-(dimethylamino)ethyl)cyclohexyl)pyridine-2,4-diamine] | 0.2 | 0.3 | 0.1 | 0.7 | 0.4 |  |  |  |  |  |  |
| CC(C)Nc1cc(Nc2ccnc(-c3cnn(S(=O)(=O)C4CC4)c3)n2)ncc1-c1csc(C(C)(C)O)n1 [Example 92, 2-(4-(6-((2-(1-(Cyclopropylsulfonyl)-1H-pyrazol-4-yl)pyrimidin-4-yl)amino)-4-(isopropylamino)pyridin-3-yl)thiazol-2-yl)propan-2-ol] |  |  |  |  |  | 7.7 | > 10000 | 103 | 2.6 | 10 |  |
| CCS(=O)(=O)n1ccc(-c2nccc(Nc3cc(N[C@H]4CC[C@@](C)(O)CC4)c(-c4ccn(C(F)F)n4)cn3)n2)n1 [Example 309, (1s,4s)-4-((5-(1-(Difluoromethyl)-1H-pyrazol-3-yl)-2-((2-(1-(ethylsulfonyl)-1H-pyrazol-3-yl)pyrimidin-4-yl)amino)pyridin-4-yl)amino)-1-methylcyclohexan-1-ol] | 4.9 | 5.5 | 42.9 | 4.4 | 460 | 29.9 | > 10000 | > 10000 | 3.8 | 343 |  |
| C[C@]1(O)CC[C@@H](Nc2cc(Nc3ccnc(-c4cnn(CC(F)(F)C(F)F)c4)n3)ncc2-c2ccn(C(F)F)n2)CC1 [Example 322, (1s,4s)-4-((5-(1-(Difluoromethyl)-1H-pyrazol-3-yl)-2-((2-(1-(2,2,3,3-tetrafluoropropyl)-1H-pyrazol-4-yl)pyrimidin-4-yl)amino)pyridin-4-yl)amino)-1-methylcyclohexan-1-ol] | 0.6 | 1520 | 15.5 | 1.9 | 176 |  |  |  |  |  |  |
